Reference: patent US5776899A, “Polypeptide and anti-HIV agent prepared therefrom” (Seikagaku Corporation, priority 1993, dated 1998)
Converted amounts (≈) assume the structure as drawn. “Also recorded” adds a separate entry of the source. Positions of bridges follow the written chain, without caps; N, C: chain ends. Non-standard residues stand in square brackets, D forms with d. Residues, ends and D or L forms follow the SMILES beside them. *: point of attachment. FITC = O=C1OC2(c3ccc(O)cc3Oc3cc(O)ccc32)c2ccc(NC(=S)*)cc21; Myristoyl = CCCCCCCCCCCCCC(=O)*; dOrn = NCCC[C@@H](N)C(=O)O; GABA = NCCCC(=O)O

Legend:
MT-4 cells = test: Cytotoxicity on virus-non-infected MT-4 cells (MTT method); type: cell-based
Experimental: (§1) HIV-infected MT-4 cells (2.5×10^4 cells/well, multiplicity of infection (MOI): 0.001) immediately after infection were added together with the test substance with various changes of the concentration to a 96-well microtitre plate. After incubation at 37° C. for 5 days in a CO2 incubator, the number of survivor cells was measured by the MTT method [Pauwels et al.; J. Virol. […] On the other hand, in order to know the cytotoxicity of the test substance on the MT-4 cells, virus-non-infected cells were incubated, likewise as above, together with the test compound with various changes of the concentration. […] Further, the rough ratio of CC50 to EC50, (CC50 /EC50) is expressed as an effective ratio (SI).

[1] = test system: human immunodeficiency virus (HIV); test: Antiviral activity against HIV in HIV-infected MT-4 cells (MTT method); type: cell-based; conditions: for SI: rough ratio CC50/EC50
Experimental: as §1

[2] = Table 5, method of Example 2, virus-non-infected MT-4 cells
[3] = Table 5, method of Example 2, HIV-infected MT-4 cells
[4] = Table 4, virus-non-infected MT-4 cells, 5 days
[5] = Table 4, HIV-infected MT-4 cells, MOI 0.001, 5 days

N=C(N)NCCC[C@H](NC(=O)[C@@H]1CSSC[C@H](NC(=O)[C@H](Cc2c[nH]c3ccccc23)NC(=O)[C@H](CCCNC(=N)N)NC(=O)[C@@H](N)CCCNC(=N)N)C(=O)N[C@@H](Cc2ccc(O)cc2)C(=O)N[C@@H](CCCNC(=N)N)C(=O)N[C@@H](CCCCN)C(=O)N[C@H](CCCCNC(=O)CCCN)C(=O)N2CCC[C@H]2C(=O)N[C@@H](Cc2ccc(O)cc2)C(=O)N[C@@H](CCCNC(=N)N)C(=O)N[C@@H](CCCCN)C(=O)N1)C(N)=O (H-RRWCYRK[dK](GABA)PYRKCR-NH2; disulfide 4-13)
CC50 (MT-4 cells; [2]): 138.07 mg/L (≈ 66.3 µM) | SI (CC50/EC50) ([1]; Table 5): 11095 | EC50 [1, 3]: 0.0165 mg/L (≈ 0.00793 µM)

N=C(N)NCCC[C@H](NC(=O)[C@@H]1CSSC[C@H](NC(=O)[C@H](Cc2c[nH]c3ccccc23)NC(=O)[C@H](CCCNC(=N)N)NC(=O)[C@@H](N)CCCNC(=N)N)C(=O)N[C@@H](Cc2ccc(O)cc2)C(=O)N[C@@H](CCCNC(=N)N)C(=O)N[C@@H](CCCCN)C(=O)N[C@H](CCCCNC(=O)CN)C(=O)N2CCC[C@H]2C(=O)N[C@@H](Cc2ccc(O)cc2)C(=O)N[C@@H](CCCNC(=N)N)C(=O)N[C@@H](CCCCN)C(=O)N1)C(N)=O (H-RRWCYRK[dK](Gly)PYRKCR-NH2; disulfide 4-13)
CC50 (MT-4 cells; [2]): 44.26 mg/L (≈ 21.6 µM) | EC50 [1, 3]: 0.03 mg/L (≈ 0.0146 µM)

N=C(N)NCCC[C@H](NC(=O)[C@@H]1CSSC[C@H](NC(=O)[C@H](Cc2c[nH]c3ccccc23)NC(=O)[C@H](CCCNC(=N)N)NC(=O)[C@@H](N)CCCNC(=N)N)C(=O)N[C@@H](Cc2ccc(O)cc2)C(=O)N[C@@H](CCCNC(=N)N)C(=O)N[C@@H](CCCCN)C(=O)N[C@H](CCCCN)C(=O)N2CCC[C@H]2C(=O)N[C@@H](Cc2ccc(O)cc2)C(=O)N[C@@H](CCCNC(=N)N)C(=O)N[C@@H](CCCCN)C(=O)N1)C(N)=O [Polypeptide (1), Arg--Arg--Trp--Cys--Tyr--Arg--Lys--DLys--Pro--Tyr--Arg--Lys--Cys--Arg--NH2] (H-RRWCYRK[dK]PYRKCR-NH2; disulfide 4-13)
CC50 (MT-4 cells; [4]): 49.8 mg/L (≈ 24.9 µM) | CC50 (MT-4 cells; [2]): 65.37 mg/L (≈ 32.7 µM) | cytotoxicity compared with reference compound (in words) (MT-4 cells; text comment on Table 4): the same cytotoxicity as that of T-22; also recorded: extremely low cytotoxicity | EC50 [1, 5]: 0.0034 mg/L (≈ 0.0017 µM) | SI ([1]; Table 4): 14,647 | SI (CC50/EC50) ([1]; Table 5): 3352 | EC50 [1, 3]: 0.0195 mg/L (≈ 0.00977 µM) | anti-HIV activity compared with reference compound (in words) ([1]; text comment on the anti-HIV results): one-third the concentration of T-22; also recorded: slightly higher

N=C(N)NCCC[C@H](NC(=O)[C@@H]1CSSC[C@H](NC(=O)[C@H](Cc2c[nH]c3ccccc23)NC(=O)[C@H](CCCNC(=N)N)NC(=O)[C@@H](N)CCCNC(=N)N)C(=O)N[C@@H](Cc2ccc(O)cc2)C(=O)N[C@@H](CCCNC(=N)N)C(=O)N[C@@H](CCCCN)C(=O)N[C@@H](CCCCN)C(=O)NCC(=O)N[C@@H](Cc2ccc(O)cc2)C(=O)N[C@@H](CCCNC(=N)N)C(=O)N[C@@H](CCCCN)C(=O)N1)C(N)=O [Polypeptide (3), Arg--Arg --Trp--Cys--Tyr--Arg--Lys --Lys--Gly --Tyr--Arg--Lys--Cys--Arg--NH2] (H-RRWCYRKKGYRKCR-NH2; disulfide 4-13)
CC50 (MT-4 cells; [2]): 198.18 mg/L (≈ 101 µM) | SI (CC50/EC50) ([1]; Table 5): 3477 | EC50 [1, 3]: 0.057 mg/L (≈ 0.0291 µM)

N=C(N)NCCC[C@H](NC(=O)[C@@H]1CSSC[C@H](NC(=O)[C@H](Cc2c[nH]c3ccccc23)NC(=O)[C@H](CCCNC(=N)N)NC(=O)[C@@H](N)CCCNC(=N)N)C(=O)N[C@@H](Cc2ccc(O)cc2)C(=O)N[C@@H](CCCNC(=N)N)C(=O)N[C@@H](CCCCN)C(=O)N2CCC[C@H]2C(=O)N[C@H](CCCCN)C(=O)N[C@@H](Cc2ccc(O)cc2)C(=O)N[C@@H](CCCNC(=N)N)C(=O)N[C@@H](CCCCN)C(=O)N1)C(N)=O [Polypeptide (5), Arg--Arg --Trp--Cys--Tyr--Arg--Lys --Pro--DLys --Tyr--Arg--Lys--Cys--Arg--NH2] (H-RRWCYRKP[dK]YRKCR-NH2; disulfide 4-13)
CC50 (MT-4 cells; [2]): 101.20 mg/L (≈ 50.7 µM) | SI (CC50/EC50) ([1]; Table 5): 1321 | EC50 [1, 3]: 0.076 mg/L (≈ 0.0381 µM)

N=C(N)NCCC[C@H](NC(=O)[C@@H]1CSSC[C@H](NC(=O)[C@H](Cc2c[nH]c3ccccc23)NC(=O)[C@H](CCCNC(=N)N)NC(=O)[C@@H](N)CCCNC(=N)N)C(=O)N[C@@H](Cc2ccc(O)cc2)C(=O)N[C@@H](CCCNC(=N)N)C(=O)N[C@@H](CCCCN)C(=O)N[C@H](CCCN)C(=O)N2CCC[C@H]2C(=O)N[C@@H](Cc2ccc(O)cc2)C(=O)N[C@@H](CCCNC(=N)N)C(=O)N[C@@H](CCCCN)C(=O)N1)C(N)=O [Polypeptide (6), Arg--Arg --Trp--Cys--Tyr--Arg--Lys --DOrn--Pro --Tyr--Arg--Lys--Cys--Arg--NH2] (H-RRWCYRK[dOrn]PYRKCR-NH2; disulfide 4-13)
CC50 (MT-4 cells; [2]): 55.93 mg/L (≈ 28.2 µM) | SI (CC50/EC50) ([1]; Table 5): 2728

CC(=O)N[C@@H](CCCNC(=N)N)C(=O)N[C@@H](CCCNC(=N)N)C(=O)N[C@@H](Cc1c[nH]c2ccccc12)C(=O)N[C@H]1CSSC[C@@H](C(=O)N[C@@H](CCCNC(=N)N)C(N)=O)NC(=O)[C@H](CCCCN)NC(=O)[C@H](CCCNC(=N)N)NC(=O)[C@H](Cc2ccc(O)cc2)NC(=O)[C@@H]2CCCN2C(=O)[C@@H](CCCCN)NC(=O)[C@H](CCCCN)NC(=O)[C@H](CCCNC(=N)N)NC(=O)[C@H](Cc2ccc(O)cc2)NC1=O [Polypeptide (14), Ac--Arg--Arg --Trp--Cys--Tyr--Arg--Lys --DLys--Pro --Tyr--Arg--Lys--Cys--Arg--NH2] (Ac-RRWCYRK[dK]PYRKCR-NH2; disulfide 4-13)
CC50 (MT-4 cells; [2]): 78.14 mg/L (≈ 38.3 µM) | SI (CC50/EC50) ([1]; Table 5): 3256 | EC50 [1, 3]: 0.024 mg/L (≈ 0.0118 µM)

CCCCCCCCCCCCCC(=O)N[C@@H](CCCNC(=N)N)C(=O)N[C@@H](CCCNC(=N)N)C(=O)N[C@@H](Cc1c[nH]c2ccccc12)C(=O)N[C@H]1CSSC[C@@H](C(=O)N[C@@H](CCCNC(=N)N)C(N)=O)NC(=O)[C@H](CCCCN)NC(=O)[C@H](CCCNC(=N)N)NC(=O)[C@H](Cc2ccc(O)cc2)NC(=O)[C@@H]2CCCN2C(=O)[C@@H](CCCCN)NC(=O)[C@H](CCCCN)NC(=O)[C@H](CCCNC(=N)N)NC(=O)[C@H](Cc2ccc(O)cc2)NC1=O [Polypeptide (17), Myr--Arg--Arg --Trp--Cys--Tyr--Arg--Lys --DLys--Pro --Tyr--Arg--Lys--Cys--Arg--NH2] (Myristoyl-RRWCYRK[dK]PYRKCR-NH2; disulfide 4-13)
CC50 (MT-4 cells; [2]): 106.60 mg/L (≈ 48.3 µM) | SI (CC50/EC50) ([1]; Table 5): 1838 | EC50 [1, 3]: 0.055 mg/L (≈ 0.0249 µM)

N=C(N)NCCC[C@H](NC(=O)[C@@H]1CSSC[C@H](NC(=O)[C@H](Cc2c[nH]c3ccccc23)NC(=O)[C@H](CCCNC(=N)N)NC(=O)[C@H](CCCNC(=N)N)NC(=S)Nc2ccc3c(c2)C(=O)OC32c3ccc(O)cc3Oc3cc(O)ccc32)C(=O)N[C@@H](Cc2ccc(O)cc2)C(=O)N[C@@H](CCCNC(=N)N)C(=O)N[C@@H](CCCCN)C(=O)N[C@H](CCCCN)C(=O)N2CCC[C@H]2C(=O)N[C@@H](Cc2ccc(O)cc2)C(=O)N[C@@H](CCCNC(=N)N)C(=O)N[C@@H](CCCCN)C(=O)N1)C(N)=O [Polypeptide (19), FTC--Arg--Arg --Trp--Cys--Tyr--Arg--Lys --DLys--Pro --Tyr--Arg--Lys--Cys--Arg--NH2] ({FITC}-RRWCYRK[dK]PYRKCR-NH2; disulfide 4-13)
CC50 (MT-4 cells; [2]): 38.47 mg/L (≈ 16.1 µM) | SI (CC50/EC50) ([1]; Table 5): 39285

N=C(N)NCCC[C@H](NC(=O)[C@@H]1CSSC[C@H](NC(=O)[C@H](Cc2c[nH]c3ccccc23)NC(=O)[C@H](CCCNC(=N)N)NC(=O)[C@@H](N)CCCNC(=N)N)C(=O)N[C@@H](Cc2ccc(O)cc2)C(=O)N[C@@H](CCCNC(=N)N)C(=O)N[C@@H](CCCCN)C(=O)N[C@H]2CSSC[C@H](NC(=O)[C@H](Cc3ccc(O)cc3)NC(=O)CNC(=O)[C@H](CCCCN)NC(=O)[C@H](Cc3ccc(O)cc3)NC2=O)C(=O)N[C@@H](Cc2ccc(O)cc2)C(=O)N[C@@H](CCCNC(=N)N)C(=O)N[C@@H](CCCCN)C(=O)N1)C(N)=O [Polypeptide T-22, reference compound] (H-RRWCYRKCYKGYCYRKCR-NH2; disulfide 4-17, 8-13 (inferred); N-terminus assumed)
CC50 (MT-4 cells; [4]): 54.1 mg/L (≈ 21.8 µM) | CC50 (MT-4 cells; [2]): 49.4 mg/L (≈ 19.9 µM) | EC50 [1, 5]: 0.0099 mg/L (≈ 0.00398 µM) | SI ([1]; Table 4): 5,465 | EC50 [1, 3]: 0.017 mg/L (≈ 0.00684 µM)
